In patent US7538241B2, “Hsp90 family protein inhibitors” (Kyowa Hakko Kogyo Co., Ltd., priority 2003, dated 2009):

Key:
[1] = system: human mammary cancer-derived KPL-4 cells; test: Cell growth inhibition test with KPL-4 cells (WST-1); format: cell-based; conditions: KPL4, 72 hours, read-out: 50% growth inhibition concentration (GI50)
Procedure, shortened: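 KPL-4 cells pre-incubated 24 h in 10% FCS DMEM, then exposed to serially diluted compound for 72 h at 37 °C, 5% CO2. WST-1 added for 1 h; A450 minus A655 read. GI50 relative to untreated cells.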

[2] = system: human multiple myeloma-derived KMS-11 cells; test: Cell growth inhibition test with KMS-11 cells (WST-1); format: cell-based; conditions: 72 hours, read-out: 50% growth inhibition concentration (GI50)
Protocol: In a 96-well plate (Nunc), human multiple myeloma-derived KMS-11 cells were sown in an amount of 4000 cells/well, and pre-incubated in 10% FCS-containing RPMI 1640 (Nissui) (incubation medium) in a 5% carbon dioxide incubator at 37° C. for 24 hours. Next, a DMSO solution of a test compound controlled at 10 mmol/L was stepwise diluted with the incubation medium, and added to each well in a total amount of 100 μL/well, and further incubated in the 5% carbon dioxide incubator at 37° C. for 72 hours. After the incubation, WST-1-labeled mixture (Rosh Diagnostic) diluted 2-fold with the incubation medium was added thereto in an amount of 20 μL/well, and incubated in the 5% carbon dioxide incubator at 37° C. for 2 hours. Using a microplate spectrophotometer (Biorad's Model 550), the absorbance at 450 nm and 655 nm of each well was measured. The cell growth inhibition activity of the test compound was indicated by the 50% growth inhibition concentration (GI50) thereof, like in Test Example 2.

[3] = system: human chronic myelocytic leukemia-derived K562 cells; test: Cell growth inhibition test with K562 cells (WST-1); format: cell-based; conditions: 72 hours, read-out: 50% growth inhibition concentration (GI50)
Procedure, shortened: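 K562 cells at 1500 cells/well in 10% FCS RPMI 1640, pre-incubated 5 h, then exposed to serially diluted compound for 72 h at 37° C, 5% CO2. Viability read by WST-1 after 2 h (absorbance 450/655 nm); GI50 reported.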

[4] = system: FGFR3 (fibroblast growth factor receptor 3); test: Deletion of protein encoded by immunoglobulin gene-translocated partner gene in KMS-11 cells (Western blotting); format: cell-based, human; conditions: 10 μmol/L and 1.0 μmol/L, 24 hours, FIG. 1
Protocol: (§1) Human multiple myeloma-derived KMS-11 cells [In Vitro Cell. Dev. Biol., 25, 723 (1989)], which had been diluted with a 10% fetal calf serum-containing RPMI 1640 (incubation medium) to 100,000 cellImL, were put in a 6-well plastic plate for cell incubation (Nunc), in an amount of 3 mL/well. It is reported that the KMS-11 cells express a large quantity of FGFR3 (fibroblast growth factor receptor 3) as a result of translocation between the immunoglobulin gene in 14q32 and the FGFR3 gene in 4p16.3 [Blood 90, 4062 (1997)]. […]
(§2) To the thus-collected cells, added was a cooled cytolysis buffer (50 mmol/L HEPES NaOH, pH 7.4, 250 mmol/L sodium chloride, 1 mmol/L ethylenediamine-tetraacetic acid, 1% Nonidet P-40, 1 mmol/L dithiothreitol, 1 mmol/L phenylmethylsulfonyl fluoride, 5 μg/mL leupeptin), and kept at 4° C. for 30 minutes for cytolysis. […] The protein concentration in the resulting supernatant was measured, and samples were prepared so as to have the same protein amount for each lane, and these were subjected to SDS (sodium dodecylsulfate)-polyacrylamide gel electrophoresis for protein separation.
(§3) Thus separated, the protein sample was transferred onto a polyvinylidene difluoride membrane (Millipore). […] After further reaction with an ECL reagent (Amersham Biosciences), the protein bands were detected on an X-ray film. […]

Erk2 = test: Western blotting of non-Hsp90 client protein in KMS-11 cells; format: cell-based, human; conditions: 10 μmol/L and 1.0 μmol/L, 24 hours, FIG. 1
Protocol: as §1, §2, §3

SMILES	GI50 [1]	GI50 [2]	GI50 [3]	deletion of FGFR3 encoded by the immunoglobulin gene-translocated partner gene [4]	protein amount of Erk2 (non-Hsp90 client protein) (Erk2)
CCc1c(O)cc(O)c(-c2ccccc2)c1CCO [Compound 84, 6-Ethyl-5-(2-hydroxyethyl)-4-phenylbenzene-1,3-diol]	≤ 50 µM	≤ 50 µM	≤ 50 µM		
COCCc1c(C(C)=O)c(O)cc(O)c1-c1ccccc1 [Compound 92, 1-[2,4-Dihydroxy-6-(2-methoxyethyl)-5-phenylphenyl]ethanone]	≤ 50 µM	≤ 50 µM	≤ 50 µM		
COCCc1c(C(C)=O)c(O)cc(O)c1-c1cccc(OC)c1 [Compound 116, 1-[2,4-Dihydroxy-6-(2-methoxyethyl)-5-(3-methoxyphenyl)phenyl]ethanone]	≤ 50 µM	≤ 50 µM	≤ 50 µM		
CCc1c(O)cc(O)c(-c2cccc(OC)c2)c1CCOC [Compound 118, 6-Ethyl-5-(2-methoxyethyl)-4-(3-methoxyphenyl)benzene-1,3-diol]	≤ 50 µM	≤ 50 µM	≤ 50 µM		
COCCc1c(C(C)=O)c(O)cc(O)c1-c1cccc(C)c1 [Compound 122, 1-[2,4-Dihydroxy-6-(2-methoxyethyl)-5-(3-methylphenyl)phenyl]ethanone]	≤ 50 µM	≤ 50 µM	≤ 50 µM		
COCCc1c(C(C)=O)c(O)cc(O)c1-c1cccc(O)c1 [Compound 134, 1-[2,4-Dihydroxy-5-(3-hydroxyphenyl)-6-(2-methoxyethyl)phenyl]ethanone]	≤ 50 µM	≤ 50 µM	≤ 50 µM		
CCc1c(O)cc(O)c(-c2cccc(OC)c2)c1CCOCCOC [Compound 138, 6-Ethyl-5-[2-(2-methoxyethoxy)ethyl]-4-(3-methoxyphenyl)benzene-1,3-diol]	≤ 50 µM	≤ 50 µM	≤ 50 µM		
COCCOCCc1c(C(C)=O)c(O)cc(O)c1-c1cccc(C)c1 [Compound 139, 1-{2,4-dihydroxy-6-[2-(2-methoxyethoxy)ethyl]-5-(3-methylphenyl)phenyl}ethanone]	≤ 50 µM	≤ 50 µM	≤ 50 µM		
CCc1c(O)cc(O)c(-c2ccccc2)c1CCOCC(O)CO (centres unmarked) [Compound 147, 5-[2-(2,3-Dihydroxypropoxy)ethyl]-6-ethyl-4-phenylbenzene-1,3-diol]	≤ 50 µM	≤ 50 µM	≤ 50 µM		
CCc1c(O)cc(O)c(-c2ccccc2)c1CCCOCC(=O)NC [Compound 159, 2-[3-(2-Ethyl-3,5-dihydroxy-6-phenylphenyl)propoxy]-N-methylacetamide]	≤ 50 µM	≤ 50 µM	≤ 50 µM		
CCc1c(O)cc(O)c(-c2cccc(O)c2)c1CCOCCOC [Compound 166, 6-Ethyl-4-(3-hydroxyphenyl)-5-[2-(2-methoxyethoxy)ethyl]benzene-1,3-diol]	≤ 50 µM	≤ 50 µM	≤ 50 µM		
CCc1c(O)cc(O)c(-c2cccc(O)c2)c1CCOCCO [Compound 174, 6-Ethyl-5-[2-(2-hydroxyethoxy)ethyl]-4-(3-hydroxyphenyl)benzene-1,3-diol]	≤ 50 µM	≤ 50 µM	≤ 50 µM		

Second part, led by results:

GI50 [1]	GI50 [2]	GI50 [3]	SMILES	deletion of FGFR3 encoded by the immunoglobulin gene-translocated partner gene [4]	protein amount of Erk2 (non-Hsp90 client protein) (Erk2)
	≤ 50 µM	≤ 50 µM	CCc1c(O)cc(O)c(-c2ccccc2)c1CCc1ocnc1C(=O)O [Compound 209, 5-[2-(2-Ethyl-3,5-dihydroxy-6-phenylphenyl)ethyl]-1,3-oxazole-4-carboxylic acid]	deletion of FGFR3	no change
	≤ 50 µM	≤ 50 µM	CCc1c(O)cc(O)c(-c2ccccc2)c1CC1O[C@H](CO)[C@@H](CO)O1 [Compound 218, 5-{[(4R,5R)-4,5-bis(hydroxymethyl)-1,3-dioxolan-2-yl]methyl}-6-ethyl-4-phenylbenzene-1,3-diol]	deletion of FGFR3	no change
≤ 50 µM	≤ 50 µM	≤ 50 µM	COC(=O)Cc1c(Br)c(O)cc(O)c1-c1ccco1 [Compound 238, Methyl 2-bromo-6-(furan-2-yl)-3,5-dihydroxyphenylacetate]		
≤ 50 µM	≤ 50 µM	≤ 50 µM	COC(=O)Cc1c(Br)c(O)cc(O)c1-c1ccc(CCC(C)=O)o1 [Compound 265, Methyl 2-bromo-3,5-dihydroxy-6-[5-(3-oxobutyl)furan-2-yl]phenylacetate]		
	≤ 50 µM	≤ 50 µM	CCc1c(O)cc(O)c(-c2cccs2)c1CCOCCO [Compound 275, 6-Ethyl-5-[2-(2-hydroxyethoxy)ethyl]-4-(2-thienyl)benzene-1,3-diol]		
	≤ 50 µM	≤ 50 µM	CCc1c(O)cc(O)c(-c2ccc(F)c(C)c2)c1CC1O[C@@H](CO)[C@H](CO)O1 [Compound 300, 5-{[(4S,5S)-4,5-Bis(hydroxymethyl)-1,3-dioxolan-2-yl]methyl}-6-ethyl-4-(4-fluoro-3-methylphenyl)benzene-1,3-diol]		
	≤ 50 µM	≤ 50 µM	CCc1c(O)cc(O)c(-c2ccccc2)c1Cc1nn(CCOC)c(=O)o1 [Compound 317, 5-[(2-Ethyl-3,5-dihydroxy-6-phenylphenyl)methyl]-3-(2-methoxyethyl)-3H-1,3,4-oxadiazol-2-one]		
